Target: T1, ACS5-G (Pyrococcus furiosus, UniProt E7FHP1+Q8TZY7)
T1 construct: gene PF1838
Details: reverse reaction; 20 mM acid, 1 mM ATP or GTP, 0.5 mM CoA, 2 mM MgCl2, pH 7.0, 80°C

T1 sequence (Q8TZY7 1-473): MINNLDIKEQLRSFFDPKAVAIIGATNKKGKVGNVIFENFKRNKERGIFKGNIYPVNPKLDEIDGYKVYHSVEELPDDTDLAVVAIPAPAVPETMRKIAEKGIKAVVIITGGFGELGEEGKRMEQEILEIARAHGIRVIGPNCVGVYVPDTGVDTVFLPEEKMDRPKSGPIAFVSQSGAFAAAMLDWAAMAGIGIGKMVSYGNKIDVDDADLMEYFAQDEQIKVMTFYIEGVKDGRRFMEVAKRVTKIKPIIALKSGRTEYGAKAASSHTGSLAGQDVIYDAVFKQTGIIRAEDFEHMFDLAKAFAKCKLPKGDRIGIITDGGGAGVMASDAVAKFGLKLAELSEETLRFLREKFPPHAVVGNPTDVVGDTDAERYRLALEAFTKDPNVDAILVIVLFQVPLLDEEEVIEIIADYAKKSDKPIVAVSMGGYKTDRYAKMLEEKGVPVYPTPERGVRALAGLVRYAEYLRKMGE
T1 sequence (E7FHP1 whole entry): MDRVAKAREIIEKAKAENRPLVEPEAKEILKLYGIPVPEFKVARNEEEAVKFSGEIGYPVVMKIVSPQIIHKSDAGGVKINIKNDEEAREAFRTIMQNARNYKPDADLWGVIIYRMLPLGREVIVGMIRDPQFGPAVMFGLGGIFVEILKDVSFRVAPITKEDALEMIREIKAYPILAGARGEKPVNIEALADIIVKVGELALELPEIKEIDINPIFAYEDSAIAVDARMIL

## C[C@H](O)C(=O)O [lactate]
  relative activity: ACS5 is the only enzyme that has significant activity with lactate

From PMC3942289, “Characterization of Ten Heterotetrameric NDP-Dependent Acyl-CoA Synthetases of the Hyperthermophilic Archaeon Pyrococcus furiosus” (Archaea, 2014)
